Each structure is given as a SMILES string. “And” between values parts separate entries of the source, which are not always exact repeats. Equal entries are not always repeated.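 The compound was tested at five concentrations on cells cultured in 96-well plates, with a 48-hour exposure period. GI50: concentration for 50% inhibition of growth. At the TGI there is no net growth.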 Some results are limits rather than exact numbers.

Common to all, as to assay: inhibition of tumour cell growth, NCI panel, 48 h
In experiment [1] the test system is CAKI-1 renal.
Experiment [2] concerns CCRF-CEM leukemia.
Experiment [3] relates to HCC-2998 colon.
In experiment [4] the test system is HL-60(TB) leukemia.
Experiment [5] relates to KM12 colon.
The test system of experiment [6] is MALME-3M melanoma.
For experiment [7], the system named is NCI-H522 lung.
For experiment [8], the system named is RXF 393 renal.
The subject of experiment [9] is SF-295 CNS.
Experiment [10] deals with U251 CNS.

For `O=C(O[C@H]1CN[C@H](C#Cc2cc3ncnc(Nc4ccc(Cc5ccccc5)cc4)c3s2)C1)N1CCOCC1`, the GI50 is 2.08 µM in experiment [1]; 6.98 µM in experiment [2]; 4.2 µM in experiment [3]; 5.5 µM in experiment [4]; 4.28 µM in experiment [5]; 4.71 µM in [6]. Also, the GI50 in [7] was 0.482 µM; in experiment [8], 1.35 µM; in experiment [9] it was over 13.6 µM; in experiment [10], 5.52 µM. Further, the TGI is over 24.1 µM in experiment [1]; over 25 µM in experiment [2]; 9.1 µM in [3]; 17.1 µM in experiment [4]; 8.72 µM in [5]; over 20.3 µM in [6]. Moreover, the TGI in [7] is 4.2 µM; in [8], 7.11 µM; in experiment [9], over 25 µM; in experiment [10] it was 20.3 µM.
In the case of `CCC1(O)C(=O)OCc2c1cc1n(c2=O)Cc2c-1nc1ccccc1c2OC` (centres undefined), the TGI was 1.8 µM in experiment [1]; under 0.01 µM in experiment [2]; 5.77 µM in experiment [3]; under 0.0341 µM in [4]; 10.8 µM in experiment [5]; 25.3 µM in experiment [6]. Also, the TGI stood at 0.984 µM in experiment [7], 0.11 µM in experiment [8], 11.3 µM in experiment [9] and 0.0801 µM in experiment [10].
Consider `O=C1C(CN(Cc2ccccc2)Cc2ccccc2)CCCC1CN(Cc1ccccc1)Cc1ccccc1` (centres undefined), for which the TGI in experiment [1] was 11.5 µM and > 100 µM; in experiment [2], 14.2 µM and > 100 µM; in [3] it was over 100 µM; in experiment [4], 12 µM and > 100 µM; in [5] it was over 100 µM; in experiment [6] it was 14.3 µM and > 83 µM. Moreover, the TGI in [8], in experiment [9] and in [10] was over 100 µM each time. The GI50 in experiment [5] is 40.2 µM and > 100 µM; in experiment [6], 8.03 µM and 36.3 µM; in experiment [8] it was 20.1 µM and > 100 µM; in [10] it was 41.7 µM and > 100 µM.
Turning to `Cc1ccc(NC(=O)C2C(=O)C(=O)N(c3ccc(C)cc3)C2=O)cc1` (centres undefined), the TGI in [2], in experiment [3], in [4], in experiment [5], in experiment [6] and in [7] was over 100 µM in each case. The TGI in experiment [8], in [9] and in experiment [10] was over 100 µM each time.
In the case of `NC(=O)Cc1ccccc1Oc1nccc(-c2c(-c3ccc(F)cc3)ncn2C2CCNCC2)n1`, the GI50 in [1], in [2], in experiment [3], in experiment [4], in experiment [5] and in [6] was over 25 µM each time. The GI50 in experiment [7], in [8], in experiment [9] and in experiment [10] was over 25 µM throughout. In addition, the TGI in experiment [1], in experiment [2], in [3], in [4], in [5] and in experiment [6] was over 25 µM each time. Also, the TGI in experiment [7], in experiment [8], in experiment [9] and in [10] was over 25 µM throughout.
As to `[Ce+3].[Cl-].[O-]/N=C(\c1ccccc1)c1ccccn1.[O-]/N=C(\c1ccccc1)c1ccccn1.[O-]/N=C(\c1ccccc1)c1ccccn1`, the GI50 in experiment [1] was 32.4 µM; in [2] it was 29.3 µM; in [3], 35.3 µM; in [4], 18.7 µM; in experiment [5], 46.8 µM; in experiment [6] it was 69.8 µM. Moreover, the GI50 in experiment [7] is 21.9 µM; in experiment [8], 34.4 µM; in experiment [9], 37.2 µM; in [10], over 100 µM. Moreover, the TGI was over 100 µM in experiment [1]; over 100 µM in [2]; over 100 µM in experiment [3]; 60.2 µM in experiment [4]; over 100 µM in experiment [5]; over 100 µM in [6]. Besides, the TGI in experiment [7] is 73.6 µM; in experiment [8], 96.3 µM; in experiment [9], over 100 µM; in experiment [10], over 100 µM.
`Cn1c(O)c(C=N)c(=O)n(C)c1=O`: the TGI in experiment [1], in experiment [2], in [3], in experiment [4], in [5] and in [6] was over 100 µM each time. Further, the TGI in [7], in experiment [8], in experiment [9] and in [10] was over 100 µM throughout.
On to `Clc1cccc(Cn2cc(Cc3cn(Cc4cccc(Cl)c4)c4ccccc34)c3ccccc32)c1`, for which the GI50 in experiment [1], in experiment [2], in [3], in experiment [4], in experiment [5] and in experiment [6] was over 100 µM throughout. Further, the GI50 in experiment [7] was 45.5 µM; in experiment [8], over 100 µM; in experiment [9] it was 86.2 µM; in experiment [10] it was over 100 µM. In addition, the TGI in experiment [1], in experiment [2], in experiment [3], in experiment [4], in experiment [5] and in experiment [6] was over 100 µM in each case. Further, the TGI in [7], in [8], in [9] and in experiment [10] was over 100 µM each time.
As for `O=S(=O)(c1ccc2c(c1)C(=NO)c1cc(S(=O)(=O)N3CCCCC3)ccc1-2)N1CCCCC1`, the GI50 in experiment [1] is 0.427 µM and 0.147 µM; in experiment [2], 0.0727 µM; in [3], 0.298 µM and 0.134 µM; in [4], 0.107 µM and 0.189 µM; in experiment [5] it was 0.508 µM and 0.184 µM; in [6] it was > 1 µM and 0.174 µM. Besides, the GI50 was > 1 µM and 0.107 µM in experiment [7]; > 1 µM and 0.204 µM in experiment [8]; 0.188 µM and 0.141 µM in experiment [9]; > 1 µM and 0.178 µM in experiment [10]. Moreover, the TGI in experiment [1] is > 1 µM and 0.282 µM; in experiment [2], 0.338 µM; in experiment [3], > 1 µM and 0.273 µM; in experiment [4], 0.326 µM and 0.549 µM; in [5], > 1 µM and 0.356 µM; in experiment [6], > 1 µM and 0.312 µM. The TGI in experiment [7] is > 1 µM and 0.252 µM; in [8], > 1 µM and 0.358 µM; in experiment [9], 0.352 µM and 0.283 µM; in experiment [10], > 1 µM and 0.344 µM.
As to `NC(=O)c1ncn(C2OC(CO)C(O)C2O)n1` (centres undefined), the GI50 is 57.2 µM in experiment [1]; 4.73 µM in experiment [2]; over 100 µM in [3]; over 100 µM in experiment [4]; over 100 µM in [5]; over 100 µM in experiment [6]. Moreover, the GI50 in [7] and in experiment [8] was over 100 µM each time. Moreover, the TGI in [1] was over 100 µM; in [2], 49.6 µM; in experiment [3] it was over 100 µM; in experiment [4] it was over 100 µM; in experiment [5], over 100 µM; in experiment [6], over 100 µM. Besides, the TGI in experiment [7] and in experiment [8] was over 100 µM throughout.
As for `CCN(CC)CC(O)CNc1ccc(NCC(O)CCl)c2c1C(=O)c1ccccc1C2=O` (centres undefined), the TGI in experiment [1] turned out to be 21.9 µM; in experiment [2], 11.4 µM; in experiment [3] it was 21.6 µM; in experiment [4], 11.3 µM; in experiment [5], 17 µM; in experiment [6], 28.3 µM. Also, the TGI in experiment [7] amounted to 13.5 µM; in experiment [8], 26.6 µM; in experiment [9], 22.1 µM; in experiment [10] it was 28 µM.
As to `CC1C(=O)CCC1C(Sc1ccccc1)(Sc1ccccc1)Sc1ccccc1` (centres undefined), the TGI in experiment [1] is over 100 µM; in experiment [2], 22.4 µM; in experiment [3] it was over 100 µM; in experiment [4], 23.7 µM; in experiment [5], over 100 µM; in experiment [6], over 100 µM. In addition, the TGI in [7] is 26.8 µM; in [8] it was 51.3 µM; in experiment [9], over 100 µM; in experiment [10] it was over 100 µM.
With `Clc1ccc(N/N=C/c2ccccn2)nc1`, the GI50 was 0.341 µM in experiment [1]; 0.332 µM in [2]; 0.422 µM in [3]; 0.318 µM in [4]; 0.395 µM in experiment [5]; 0.323 µM in [7]. Moreover, the GI50 in experiment [8] is 0.492 µM; in [9] it was 0.452 µM; in [10] it was 0.459 µM. For the same molecule, the TGI is over 22.7 µM in experiment [1]; over 100 µM in [2]; over 100 µM in experiment [3]; 1.31 µM in experiment [4]; over 54.7 µM in [5]; 37.4 µM in [7]. Also, the TGI in experiment [8] is 15.7 µM; in [9], over 100 µM; in [10], over 100 µM.
`COc1ccc(Nc2nc(NCc3ccccc3)c3ccccc3n2)cc1`: the GI50 in experiment [1] is 3.69 µM; in [2], 2.76 µM; in experiment [3], 2.9 µM; in experiment [4], 2.04 µM; in experiment [5], 3.81 µM; in experiment [6] it was 1.92 µM. Moreover, the GI50 was 3.66 µM in experiment [7], 4.78 µM in experiment [9] and 2.17 µM in [10]. Moreover, the TGI is 14 µM in experiment [1]; 9.19 µM in experiment [2]; 7.6 µM in [3]; 4.2 µM in experiment [4]; 13.8 µM in [5]; 3.69 µM in [6]. Also, the TGI stood at 16.1 µM in experiment [7], 23.4 µM in [9] and 3.97 µM in experiment [10].
As to `Cc1cc(NC(=O)NC(=O)c2ccccc2[N+](=O)[O-])ccc1Oc1ncc(Cl)cn1`, the TGI in experiment [2] was over 100 µM; in [3], 0.6 µM; in experiment [4] it was 0.137 µM; in experiment [5] it was 13 µM; in experiment [6], 43.8 µM; in [7], 0.201 µM. In addition, the values for the TGI in experiment [8], in experiment [9] and in [10] were 0.147 µM, 29.3 µM and 4.42 µM, respectively.
On to `C=CC[Se]C(=O)c1ccccc1OC(C)=O`, for which the GI50 in experiment [1] was 2.35 µM; in [2], 2.42 µM; in experiment [3], 1.36 µM; in [4], 2.4 µM; in [5], 0.947 µM; in experiment [6], 1.66 µM. Further, the GI50 in [7] is 1.93 µM; in experiment [9], 0.332 µM. Also, the TGI in [1] was 5.73 µM; in experiment [2], 7.06 µM; in experiment [3], 2.88 µM; in [4], 6.54 µM; in [5], 2.52 µM; in [6] it was 3.38 µM. The TGI came to 4.62 µM in [7] and 1.32 µM in experiment [9].
Regarding `Cc1cc(=O)[nH]c(CNC(=O)c2cccc3ccccc23)n1`, the TGI in [1], in [2], in [3], in experiment [4], in experiment [6] and in experiment [7] was over 100 µM in each case. The TGI in experiment [8], in [9] and in experiment [10] was over 100 µM in each case.
In the case of `OCC1OC(n2ccc3cnccc32)CC1O` (centres undefined), the TGI in experiment [1], in [2], in experiment [3], in [4], in [5] and in [6] was over 100 µM in each case. Further, the TGI in experiment [7], in experiment [9] and in experiment [10] was over 100 µM each time.
`O=C(CC(=O)C(=O)CC(=O)OCc1ccccc1)OCc1ccccc1`: the TGI in experiment [1], in [2], in experiment [3], in [4], in experiment [6] and in experiment [7] was over 100 µM in each case. The TGI in experiment [8] and in [10] was over 100 µM each time.
In the case of `CC(C)CC(=O)N1CCN(C(=O)CC(C)C)c2ccccc21`, the TGI in experiment [2], in experiment [3], in experiment [4], in experiment [5], in experiment [6] and in [7] was over 100 µM in each case. Also, the TGI in [8], in [9] and in [10] was over 100 µM throughout.

The values above are taken from PubChem BioAssay (NCI).
